The values that follow come from US9944607B2, “Thiohydantoin derivatives and uses thereof” (Whitehead Institute for Biomedical Research, priority 2012, dated 2018).

A value given as a limit tells only on which side of the number the result lay.

A short description of series [1]: Plasma stability, mouse plasma. In kind it is in vitro ADME. The settings on record: 37° C., 5 μM. As for the experimental part:
(§1) Plasma stability was determined at 37° C. at 5 hours in both human and mouse plasma. Each compound was prepared in duplicate at 5 μM in plasma diluted 50/50 (v/v) with PBS pH 7.4 (0.95% acetonitrile, 0.05% DMSO). Compounds were incubated at 37° C. for 5 hours with a 250-rpm orbital shake with time points taken at 0 hours and 5 hours.

The test system of series [2] is NIH-3T3 mammalian fibroblasts. The series can be described thus: Counterscreen mammalian cell toxicity assay (Alamar Blue). In kind it is cell-based, murine. The settings on record: Mus musculus, NIH3T3, Tables 9, 10, 12; AID 602394; read-out: Murine 3T3 fibroblasts growth inhibition (fibroblast toxicity) IC50. In short, it runs like this:
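Quiescent NIH-3T3 fibroblasts, cultured overnight, exposed to 100 nL pinned compound for 48 h at 37° C, 5% CO2. Alamar Blue added to 1:200 final, 2-3 h further incubation; fluorescence (RFU) read as relative cell growth.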
Background: The purpose of a counterscreen is to sort out artefacts and off-target activity.

Series [3] has as its system Candida albicans CaCi-2. The series can be described thus: Primary assay: C. albicans CaCi-2 growth inhibition (Alamar Blue). It is filed as cell-based. A general note: Resazurin is reduced to fluorescent resorufin, in cell work by metabolically active cells.
Series [4] deals with Candida albicans CaCi-17. In words: Primary assay: C. albicans CaCi-17 growth inhibition (Alamar Blue). In kind it is cell-based. The settings on record: Candida albicans, CACI17, Tables 9, 10, 12; AID 623897; read-out: C. albicans CaCi-17 growth inhibition IC50.
Series [5] can be described thus: Plasma stability, human plasma. In kind it is in vitro ADME. The settings on record: 37° C., 5 μM. As for the experimental part: as §1
Series [6] is described as follows: Plasma protein binding by equilibrium dialysis, mouse plasma. It is filed as in vitro ADME. The settings on record: pH 7.4, murine plasma, 37° C., read-out: Plasma protein binding (% bound), Murine. As for the experimental part: (§2) Plasma protein binding was determined by equilibrium dialysis using the Rapid Equilibrium Dialysis (RED) device (Pierce Biotechnology, Rockford, Ill.) for both human and mouse plasma. Each compound was prepared in duplicate at 5 μM in plasma (0.95% acetonitrile, 0.05% DMSO) and added to one side of the membrane (200 μL) with PBS pH 7.4 added to the other side (350 μL). Compounds were incubated at 37° C. for 5 hours with a 250-rpm orbital shake.
A general note: Equilibrium dialysis compares concentrations on both sides of a semipermeable membrane.

The nature of series [7]: Plasma protein binding by equilibrium dialysis, human plasma. It is filed as in vitro ADME. The settings on record: pH 7.4, 37° C., read-out: Plasma protein binding (% bound), Human (converted). The method, then:
as §2

The subject of series [8] is mitochondrial function. The settings on record: FIG. 1 legend, known inhibitors; cited from earlier work.

Turning to `CCOC(=O)N1C(=O)C2(CCCCC2)N(c2ccc(C)cc2)C1=S` [CID 3889161], the “Plasma stability (% remaining after 5 hours), Murine” value in series [1] is under 1.0%. Moreover, the IC50 is over 26 µM in series [2]; 0.3 µM in series [3] (Candida albicans, CACI2, Tables 9, 10, 12, AID 623899, read-out: C. albicans CaCi-2 growth inhibition IC50); 8.5 µM in series [4]. In series [5], the “Plasma stability (% remaining after 5 hours), Human” value is reported as under 1.0%.

Take `Cc1ccc(N2C(=S)N(C)C(=O)C23CCCCC3)cc1` [CID 56604835]: the fraction unbound at 5 h, 5 μM was 0.001 in series [6] and 0.014 in series [7]. Also, in series [1], the “Plasma stability (% remaining after 5 hours), Murine” value is reported as 96.6%. Besides, in series [3] (CaCi-2, or both test strains (CaCi-2, CaCi-17) where the sentence names none), the “Activity against C. albicans” value is recorded as “no activity”. Also, the “Plasma stability (% remaining after 5 hours), Human” value in series [5] is 95.7%.

For the molecule Antimycin, the “Inhibition of mitochondrial function (in words)” value in series [8] was “potent, but non-selective”.

One may read the IC50 as the concentration needed to halve the response being measured.
